Experimental findings from patent US20220380431A1, “GLYCOPEPTIDE ANALOGS OF SECRETIN FAMILY PEPTIDES” (ARIZONA BOARD OF REGENTS ON BEHALF OF THE UNIVERSITY OF …, priority 2017, published 2022) are described below.

Where a SMILES comes first, the peptide text is derived from it. [ ]: non-standard residue; d: D form. The star is where a group is joined. βGlc = OC[C@H]1O[C@@H](*)[C@H](O)[C@@H](O)[C@@H]1O; Nva = CCC[C@H](N)C(=O)O

Format in all cases: cell-based
One test addresses T1, VPAC1 (Homo sapiens, UniProt P32241).
T1 sequence (P32241 31-457): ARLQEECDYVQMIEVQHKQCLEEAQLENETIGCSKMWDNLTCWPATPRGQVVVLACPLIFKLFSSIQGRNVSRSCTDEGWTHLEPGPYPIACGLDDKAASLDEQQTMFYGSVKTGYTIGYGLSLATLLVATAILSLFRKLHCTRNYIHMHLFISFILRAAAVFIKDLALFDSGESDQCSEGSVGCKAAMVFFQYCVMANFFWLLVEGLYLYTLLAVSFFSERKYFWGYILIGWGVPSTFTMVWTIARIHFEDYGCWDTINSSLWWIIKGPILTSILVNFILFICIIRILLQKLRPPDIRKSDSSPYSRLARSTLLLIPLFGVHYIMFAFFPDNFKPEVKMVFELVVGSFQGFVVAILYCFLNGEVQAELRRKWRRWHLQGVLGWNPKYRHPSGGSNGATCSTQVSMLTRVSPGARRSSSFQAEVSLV
The test is described as follows: Assay of peptides at PAC and VPAC receptors: VPAC1 (EC50/EMax).

A further test deals with T2, PAC1 (Homo sapiens, UniProt P41586).
T2 sequence (P41586 21-468): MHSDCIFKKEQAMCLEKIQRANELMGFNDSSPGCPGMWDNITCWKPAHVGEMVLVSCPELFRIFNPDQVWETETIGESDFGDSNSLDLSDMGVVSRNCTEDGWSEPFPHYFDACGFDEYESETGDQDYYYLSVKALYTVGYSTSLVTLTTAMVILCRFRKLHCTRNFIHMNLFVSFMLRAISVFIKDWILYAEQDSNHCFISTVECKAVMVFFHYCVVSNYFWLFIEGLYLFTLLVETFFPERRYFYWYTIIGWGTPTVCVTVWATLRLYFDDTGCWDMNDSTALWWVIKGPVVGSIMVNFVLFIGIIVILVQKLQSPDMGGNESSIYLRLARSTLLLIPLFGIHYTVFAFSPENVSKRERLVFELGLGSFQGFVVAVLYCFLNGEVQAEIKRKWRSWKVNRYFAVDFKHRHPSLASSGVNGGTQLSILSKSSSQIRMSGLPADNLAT
The test is described as follows: Assay of peptides at PAC and VPAC receptors: PAC1 (EC50/EMax).

In a further test the target is T3, VPAC2 (Homo sapiens, UniProt P41587).
T3 sequence (P41587 24-438): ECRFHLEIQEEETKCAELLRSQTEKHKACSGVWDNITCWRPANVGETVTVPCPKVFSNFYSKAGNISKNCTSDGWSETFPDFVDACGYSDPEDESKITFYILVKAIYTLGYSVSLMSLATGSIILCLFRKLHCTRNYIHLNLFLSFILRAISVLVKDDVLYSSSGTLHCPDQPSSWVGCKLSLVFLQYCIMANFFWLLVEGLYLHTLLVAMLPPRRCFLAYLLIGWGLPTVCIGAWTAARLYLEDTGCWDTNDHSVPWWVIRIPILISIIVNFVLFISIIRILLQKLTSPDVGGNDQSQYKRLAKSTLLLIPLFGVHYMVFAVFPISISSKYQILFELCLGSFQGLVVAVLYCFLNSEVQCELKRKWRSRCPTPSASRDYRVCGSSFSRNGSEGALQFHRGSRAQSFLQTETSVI
The test can be described thus: Assay of peptides at PAC and VPAC receptors: VPAC2 (EC50/EMax).

A word on the Emax: it is the greatest response seen or fitted, relative to the assay's reference. `CCC[C@H](NC(=O)[C@H](CCC(N)=O)NC(=O)[C@H](CCCCN)NC(=O)[C@H](CCCNC(=N)N)NC(=O)[C@H](Cc1ccc(O)cc1)NC(=O)[C@H](CCCNC(=N)N)NC(=O)[C@H](CO)NC(=O)[C@H](Cc1ccc(O)cc1)NC(=O)[C@H](CO)NC(=O)[C@H](CC(=O)O)NC(=O)[C@@H](NC(=O)[C@H](Cc1ccccc1)NC(=O)[C@@H](NC(=O)CNC(=O)[C@H](CC(=O)O)NC(=O)[C@@H](CO)NC(=O)[C@@H](N)Cc1c[nH]cn1)[C@@H](C)CC)[C@@H](C)O)C(=O)N[C@@H](C)C(=O)N[C@H](C(=O)N[C@@H](CCCCN)C(=O)N[C@@H](CCCCN)C(=O)N[C@@H](Cc1ccc(O)cc1)C(=O)N[C@@H](CC(C)C)C(=O)N[C@@H](C)C(=O)N[C@@H](C)C(=O)N[C@@H](CC(C)C)C(=O)N[C@@H](CO[C@@H]1O[C@H](CO)[C@@H](O)[C@H](O)[C@H]1O)C(=O)N[C@@H](CC(C)C)C(N)=O)C(C)C` [CRA3002] (H-H[dS]DGIFTDSYSRYRKQ[Nva]AVKKYLAALS(βGlc)L-NH2): the Emax at VPAC1 is 93%; at PAC1 it was -79%; at VPAC2, -95%.
Broadly, the EC50 is the concentration that produces a half-maximal response. Lower therefore signals a more potent agent. With `CCC[C@H](NC(=O)[C@H](CCC(N)=O)NC(=O)[C@H](CCCCN)NC(=O)[C@H](CCCNC(=N)N)NC(=O)[C@H](Cc1ccc(O)cc1)NC(=O)[C@H](CCCNC(=N)N)NC(=O)[C@H](CO)NC(=O)[C@H](Cc1ccc(O)cc1)NC(=O)[C@H](CO)NC(=O)[C@H](CC(=O)O)NC(=O)[C@H](C)NC(=O)[C@H](Cc1ccccc1)NC(=O)[C@@H](NC(=O)CNC(=O)[C@H](CC(=O)O)NC(=O)[C@@H](CO)NC(=O)[C@@H](N)Cc1c[nH]cn1)[C@@H](C)CC)C(=O)N[C@@H](C)C(=O)N[C@H](C(=O)N[C@@H](CCCCN)C(=O)N[C@@H](CCCCN)C(=O)N[C@@H](Cc1ccc(O)cc1)C(=O)N[C@@H](CC(C)C)C(=O)N[C@@H](C)C(=O)N[C@@H](C)C(=O)N[C@H](C(=O)N[C@@H](CO[C@@H]1O[C@H](CO)[C@@H](O)[C@H](O)[C@H]1O)C(N)=O)C(C)C)C(C)C` [CRA3004] (H-H[dS]DGIFADSYSRYRKQ[Nva]AVKKYLAAVS(βGlc)-NH2), at VPAC1, the EC50 amounted to 1370 nM and the Emax was determined as 85%.
Regarding “HSDGIFTDSYSRYRKQLAVKKYLAAVd8L-Ser(Cell) [2ls98Cell]”, on VPAC1, a half-maximal effect (EC50) was put at 0.52 nM and the “VPAC1 EMax” value is given as 93%. Further, at PAC1, the EC50 is 0.84 nM and the “PAC1 EMax” value is on record as 92%. At VPAC2, the EC50 turned out to be 55.6 nM and the “VPAC2 EMax” value is given as 91%.
As to `CCC[C@H](NC(=O)[C@H](CCC(N)=O)NC(=O)[C@H](CCCCN)NC(=O)[C@H](CCCNC(=N)N)NC(=O)[C@H](Cc1ccc(O)cc1)NC(=O)[C@H](CCCNC(=N)N)NC(=O)[C@H](CO)NC(=O)[C@H](Cc1ccc(O)cc1)NC(=O)[C@H](CO)NC(=O)[C@H](CC(=O)O)NC(=O)[C@H](C)NC(=O)[C@H](Cc1ccccc1)NC(=O)[C@@H](NC(=O)CNC(=O)[C@H](CC(=O)O)NC(=O)[C@@H](CO)NC(=O)[C@@H](N)Cc1c[nH]cn1)[C@@H](C)CC)C(=O)N[C@@H](C)C(=O)N[C@H](C(=O)N[C@@H](CCCCN)C(=O)N[C@@H](CCCCN)C(=O)N[C@@H](Cc1ccc(O)cc1)C(=O)N[C@@H](CC(C)C)C(=O)N[C@@H](C)C(=O)N[C@@H](C)C(=O)N[C@H](C(=O)N[C@@H](CO[C@@H]1O[C@H](CO)[C@@H](O)[C@H](O)[C@H]1O)C(=O)N[C@@H](CC(C)C)C(N)=O)C(C)C)C(C)C` [CRA3005] (H-H[dS]DGIFADSYSRYRKQ[Nva]AVKKYLAAVS(βGlc)L-NH2), on VPAC1, the Emax amounted to 78%.
“HSDGIFTDSYSRYRKQLAVd8KKYLAAVd8L-Ser(Lact) [2ls98Lact]”: at VPAC1, the EC50 came to 0.45 nM and the “VPAC1 EMax” value is recorded as 101%. At PAC1, the EC50 was determined as 0.72 nM and the “PAC1 EMax” value came to 93%. For the same molecule, at VPAC2, the EC50 is 193 nM and the “VPAC2 EMax” value is given as 100%.
